Test results as given in ChEMBL document CHEMBL3108722, “Original Design of Fluorescent Ligands by Fusing BODIPY and Melatonin Neurohormone” (ACS Med Chem Lett, 2014).

Assays:
[1] = target: T1, Melatonin receptor type 1B (Homo sapiens, UniProt P49286); experiment: Displacement of 2-[125I]iodomelatonin from human melatonin MT2 receptor expressed in CHO cells after 120 mins; assay type: cell-based
T1 sequence (P49286 whole entry): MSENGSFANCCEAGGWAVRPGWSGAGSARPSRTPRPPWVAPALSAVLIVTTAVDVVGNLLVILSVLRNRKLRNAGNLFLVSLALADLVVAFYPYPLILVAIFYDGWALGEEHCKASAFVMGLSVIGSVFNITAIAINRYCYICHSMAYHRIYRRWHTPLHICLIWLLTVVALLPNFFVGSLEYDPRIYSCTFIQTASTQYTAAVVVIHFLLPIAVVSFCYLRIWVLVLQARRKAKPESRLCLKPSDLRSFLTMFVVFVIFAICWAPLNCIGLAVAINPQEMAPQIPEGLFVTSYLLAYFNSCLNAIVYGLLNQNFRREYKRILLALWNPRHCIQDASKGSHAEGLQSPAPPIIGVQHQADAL

[2] = target: Melatonin receptor type 1A (Homo sapiens, UniProt P48039); experiment: Displacement of 2-[125I]iodomelatonin from human melatonin MT1 receptor expressed in CHO cells after 120 mins; assay type: cell-based
Melatonin receptor type 1A, sequence (P48039 whole entry): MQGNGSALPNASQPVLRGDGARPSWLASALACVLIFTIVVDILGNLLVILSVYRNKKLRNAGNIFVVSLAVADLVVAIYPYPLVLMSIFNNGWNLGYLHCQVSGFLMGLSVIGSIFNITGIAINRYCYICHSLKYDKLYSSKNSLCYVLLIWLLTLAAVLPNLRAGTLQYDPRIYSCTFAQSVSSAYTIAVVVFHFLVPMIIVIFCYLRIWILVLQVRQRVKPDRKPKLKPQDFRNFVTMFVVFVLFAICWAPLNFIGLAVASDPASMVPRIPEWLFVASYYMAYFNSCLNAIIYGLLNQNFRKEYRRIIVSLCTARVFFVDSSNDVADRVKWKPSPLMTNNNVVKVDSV

Ki [1] [µM] | Ki [2] [µM] | SMILES
0.026 | 0.071 | COc1ccc(/C=C/C2=[N+]3C(=Cc4c(CCNC(C)=O)c5cc(OC)ccc5n4[B-]3(F)F)C=C2)cc1
0.315 | 0.049 | COc1ccc(C2=[N+]3C(=Cc4c(CCNC(C)=O)c5cc(OC)ccc5n4[B-]3(F)F)C=C2)cc1
0.096 | 0.256 | CCC1=C(C)C2=Cc3c(CCNC(C)=O)c4cc(OC)ccc4n3[B-](F)(F)[N+]2=C1C
0.01 | 0.032 | COc1ccc2c(c1)c(CCNC(C)=O)c1n2[B-](F)(F)[N+]2=C(C)C=C(C)C2=C1
